Data taken from patent US11395857B2, “Radiolabeled melanocortin 1 receptor-specific alpha-melanocyte-stimulating hormone analogues for imaging or therapy” (PROVINCIAL HEALTH SERVICES AUTHORITY, priority 2018, dated 2022).
Read-outs that look alike come from different tables or passages of the source.

Legend:
[1] = Biodistribution of 177Lu-labeled αMSH analogues in mice bearing B16F10 mouse melanoma; type: in vivo, C57BL/6J mice; details: mouse, iv, total radioactivity, C57BL/6J mice, B16F10 melanoma
Method: (§1) The B16-F10 mouse melanoma cells were cultured and inoculated in mice as described in Example 1.
(§2) For biodistribution studies, approximately 1-2 MBq of ^177Lu-labeled αMSH analogues via tail vein under anesthesia. At 1, 4, 24, and 120 h p.i., the mice were euthanized by CO2 inhalation. Organs/tissues were harvested and the radioactivity was measured as described in Example 1.

[2] = tested on: B16F10 mouse melanoma; test: as above; type: in vivo, C57BL/6J mice; details: C57BL/6J mice, B16F10 melanoma
Method: as §1, §2

Compound `CCCC[C@H](NC(=O)CN1CCC(NC(=O)CN2CCN(CC(=O)O)CCN(CC(=O)O)CCN(CC(=O)O)CC2)CC1)C(=O)N[C@H]1CC(=O)NCCCC[C@@H](C(N)=O)N(C)C(=O)[C@H](Cc2c[nH]c3ccccc23)N(C)C(=O)[C@H](CCCNC(=N)N)N(C)C(=O)[C@@H](Cc2ccccc2)NC(=O)[C@H](Cc2c[nH]cn2)N(C)C1=O` [^177Lu-labeled CCZ01099, metal not drawn] has a tissue uptake at 1 h ([1]; male, seminal glands, 1 h p.i., read-out: Biodistribution, Seminal glands) of 0.06 ± 0.02 %ID/g, a tissue uptake at 4 h ([1]; male, seminal glands, 4 h p.i., read-out: Biodistribution, Seminal glands) of 0.02 %ID/g and a tissue uptake at 24 h ([1]; male, seminal glands, 24 h p.i., read-out: Biodistribution, Seminal glands) of 0.01 %ID/g. For the same compound, the tissue uptake at 1 h ([1]; male, testes, 1 h p.i., read-out: Biodistribution, Testes) was 0.13 ± 0.02 %ID/g, the tissue uptake at 4 h ([1]; male, testes, 4 h p.i., read-out: Biodistribution, Testes) was 0.03 %ID/g and the tissue uptake at 24 h ([1]; male, testes, 24 h p.i., read-out: Biodistribution, Testes) was 0.03 %ID/g. It also gave a tissue uptake at 120 h ([1]; male, testes, 120 h p.i., read-out: Biodistribution, Testes) of 0.02 ± 0.01 %ID/g, a tissue uptake at 1 h ([1]; adrenal glands, 1 h p.i., read-out: Biodistribution, Adrenal glands) of 0.39 ± 0.13 %ID/g and a tissue uptake at 4 h ([1]; adrenal glands, 4 h p.i., read-out: Biodistribution, Adrenal glands) of 0.19 ± 0.06 %ID/g. The tissue uptake at 24 h ([1]; adrenal glands, 24 h p.i., read-out: Biodistribution, Adrenal glands) was 0.1 ± 0.04 %ID/g, the tissue uptake at 120 h ([1]; adrenal glands, 120 h p.i., read-out: Biodistribution, Adrenal glands) was 0.03 ± 0.03 %ID/g and the tissue uptake at 1 h ([1]; blood, 1 h p.i., read-out: Biodistribution, Blood) was 0.48 ± 0.22 %ID/g. The tissue uptake at 4 h ([1]; blood, 4 h p.i., read-out: Biodistribution, Blood) was 0.05 ± 0.01 %ID/g, the tissue uptake at 24 h ([1]; blood, 24 h p.i., read-out: Biodistribution, Blood) was 0.01 %ID/g and the tissue uptake at 1 h ([1]; bone, 1 h p.i., read-out: Biodistribution, Bone) was 0.13 ± 0.03 %ID/g. The tissue uptake at 4 h ([1]; bone, 4 h p.i., read-out: Biodistribution, Bone) was 0.06 ± 0.02 %ID/g, the tissue uptake at 24 h ([1]; bone, 24 h p.i., read-out: Biodistribution, Bone) was 0.04 ± 0.01 %ID/g and the tissue uptake at 120 h ([1]; bone, 120 h p.i., read-out: Biodistribution, Bone) was 0.02 ± 0.01 %ID/g. For the same compound, the tissue uptake at 1 h ([1]; brain, 1 h p.i., read-out: Biodistribution, Brain) was 0.02 %ID/g, the tissue uptake at 4 h ([1]; brain, 4 h p.i., read-out: Biodistribution, Brain) was 0.01 %ID/g and the tissue uptake at 1 h ([1]; fat, 1 h p.i., read-out: Biodistribution, Fat) was 0.06 ± 0.02 %ID/g. It also gave a tissue uptake at 4 h ([1]; fat, 4 h p.i., read-out: Biodistribution, Fat) of 0.01 %ID/g, a tissue uptake at 24 h ([1]; fat, 24 h p.i., read-out: Biodistribution, Fat) of 0.01 %ID/g and a tissue uptake at 120 h ([1]; fat, 120 h p.i., read-out: Biodistribution, Fat) of 0.01 %ID/g. It also gave a tissue uptake at 1 h ([1]; heart, 1 h p.i., read-out: Biodistribution, Heart) of 0.17 ± 0.06 %ID/g, a tissue uptake at 4 h ([1]; heart, 4 h p.i., read-out: Biodistribution, Heart) of 0.04 ± 0.01 %ID/g and a tissue uptake at 24 h ([1]; heart, 24 h p.i., read-out: Biodistribution, Heart) of 0.03 %ID/g. The tissue uptake at 120 h ([1]; heart, 120 h p.i., read-out: Biodistribution, Heart) was 0.02 %ID/g, the tissue uptake at 1 h ([1]; intestine, 1 h p.i., read-out: Biodistribution, Intestine) was 0.25 ± 0.03 %ID/g and the tissue uptake at 4 h ([1]; intestine, 4 h p.i., read-out: Biodistribution, Intestine) was 0.12 ± 0.06 %ID/g. The tissue uptake at 24 h ([1]; intestine, 24 h p.i., read-out: Biodistribution, Intestine) was 0.23 ± 0.28 %ID/g, the tissue uptake at 120 h ([1]; intestine, 120 h p.i., read-out: Biodistribution, Intestine) was 0.12 ± 0.16 %ID/g and the tissue uptake at 1 h ([1]; kidneys, 1 h p.i., read-out: Biodistribution, Kidneys) was 4.15 ± 0.99 %ID/g. The tissue uptake at 4 h ([1]; kidneys, 4 h p.i., read-out: Biodistribution, Kidneys) was 4.32 ± 2.06 %ID/g, the tissue uptake at 24 h ([1]; kidneys, 24 h p.i., read-out: Biodistribution, Kidneys) was 1.61 ± 0.29 %ID/g and the tissue uptake at 120 h ([1]; kidneys, 120 h p.i., read-out: Biodistribution, Kidneys) was 0.5 ± 0.02 %ID/g. The tissue uptake at 1 h ([1]; liver, 1 h p.i., read-out: Biodistribution, Liver) was 0.41 ± 0.11 %ID/g, the tissue uptake at 4 h ([1]; liver, 4 h p.i., read-out: Biodistribution, Liver) was 0.34 ± 0.1 %ID/g and the tissue uptake at 24 h ([1]; liver, 24 h p.i., read-out: Biodistribution, Liver) was 0.32 ± 0.13 %ID/g. It also gave a tissue uptake at 120 h ([1]; liver, 120 h p.i., read-out: Biodistribution, Liver) of 0.19 ± 0.02 %ID/g, a tissue uptake at 1 h ([1]; lungs, 1 h p.i., read-out: Biodistribution, Lungs) of 0.54 ± 0.2 %ID/g and a tissue uptake at 4 h ([1]; lungs, 4 h p.i., read-out: Biodistribution, Lungs) of 0.17 ± 0.06 %ID/g. For the same compound, the tissue uptake at 24 h ([1]; lungs, 24 h p.i., read-out: Biodistribution, Lungs) was 0.07 ± 0.02 %ID/g, the tissue uptake at 120 h ([1]; lungs, 120 h p.i., read-out: Biodistribution, Lungs) was 0.04 ± 0.01 %ID/g and the tissue uptake at 1 h ([1]; muscle, 1 h p.i., read-out: Biodistribution, Muscle) was 0.1 ± 0.04 %ID/g. The tissue uptake at 4 h ([1]; muscle, 4 h p.i., read-out: Biodistribution, Muscle) was 0.02 %ID/g, the tissue uptake at 24 h ([1]; muscle, 24 h p.i., read-out: Biodistribution, Muscle) was 0.01 %ID/g and the tissue uptake at 120 h ([1]; muscle, 120 h p.i., read-out: Biodistribution, Muscle) was 0.01 %ID/g. For the same compound, the tissue uptake at 1 h ([1]; pancreas, 1 h p.i., read-out: Biodistribution, Pancreas) was 0.13 ± 0.05 %ID/g, the tissue uptake at 4 h ([1]; pancreas, 4 h p.i., read-out: Biodistribution, Pancreas) was 0.03 ± 0.01 %ID/g and the tissue uptake at 24 h ([1]; pancreas, 24 h p.i., read-out: Biodistribution, Pancreas) was 0.03 %ID/g. For the same compound, the tissue uptake at 120 h ([1]; pancreas, 120 h p.i., read-out: Biodistribution, Pancreas) was 0.02 %ID/g, the tissue uptake at 1 h ([1]; spleen, 1 h p.i., read-out: Biodistribution, Spleen) was 0.24 ± 0.08 %ID/g and the tissue uptake at 4 h ([1]; spleen, 4 h p.i., read-out: Biodistribution, Spleen) was 0.13 ± 0.04 %ID/g. It also gave a tissue uptake at 24 h ([1]; spleen, 24 h p.i., read-out: Biodistribution, Spleen) of 0.12 ± 0.02 %ID/g, a tissue uptake at 120 h ([1]; spleen, 120 h p.i., read-out: Biodistribution, Spleen) of 0.07 ± 0.01 %ID/g and a tissue uptake at 1 h ([1]; stomach, 1 h p.i., read-out: Biodistribution, Stomach) of 0.13 ± 0.02 %ID/g. For the same compound, the tissue uptake at 4 h ([1]; stomach, 4 h p.i., read-out: Biodistribution, Stomach) was 0.59 ± 1.14 %ID/g, the tissue uptake at 24 h ([1]; stomach, 24 h p.i., read-out: Biodistribution, Stomach) was 0.53 ± 0.48 %ID/g and the tissue uptake at 120 h ([1]; stomach, 120 h p.i., read-out: Biodistribution, Stomach) was 0.12 ± 0.16 %ID/g. It also gave a tissue uptake at 1 h ([1]; thyroid, 1 h p.i., read-out: Biodistribution, Thyroid) of 0.22 ± 0.09 %ID/g, a tissue uptake at 4 h ([1]; thyroid, 4 h p.i., read-out: Biodistribution, Thyroid) of 0.07 ± 0.01 %ID/g and a tissue uptake at 24 h ([1]; thyroid, 24 h p.i., read-out: Biodistribution, Thyroid) of 0.06 ± 0.01 %ID/g. It also gave a tissue uptake at 120 h ([1]; thyroid, 120 h p.i., read-out: Biodistribution, Thyroid) of 0.05 ± 0.01 %ID/g, an excreta dose per gram or mL at 1 h ([1]; urine, 1 h p.i.) of 227 ± 115 %ID/g and an excreta dose per gram or mL at 4 h ([1]; urine, 4 h p.i.) of 49.1 ± 39.7 %ID/g. The excreta dose per gram or mL at 24 h ([1]; urine, 24 h p.i.) was 0.46 ± 0.31 %ID/g, the excreta dose per gram or mL at 120 h ([1]; urine, 120 h p.i.) was 0.09 ± 0.06 %ID/g and the “Biodistribution, B16F10 tumour” value ([2]; 1 h p.i.) was 4.49 ± 1.89 % ID/g. For the same compound, the “Biodistribution, B16F10 tumour” value ([2]; 4 h p.i.) was 4.42 ± 0.64 % ID/g, the “Biodistribution, B16F10 tumour” value ([2]; 24 h p.i.) was 2.04 ± 0.46 % ID/g and the “Biodistribution, Brain” value ([2]; 24 h p.i.) was 0.00 ± 0.00 % ID/g. The “Biodistribution, B16F10 tumour” value ([2]; 120 h p.i.) was 0.49 ± 0.30 % ID/g, the “Biodistribution, Blood” value ([2]; 120 h p.i.) was 0.00 ± 0.00 % ID/g and the “Biodistribution, Brain” value ([2]; 120 h p.i.) was 0.00 ± 0.00 % ID/g. For the same compound, the “Biodistribution, Seminal glands” value ([2]; 120 h p.i.) was 0.00 ± 0.00 % ID/g.
